Assay results published in patent US6355799B1, “Substituted benzene compounds, process for their preparation, and herbicidal and defoliant compositions containing them” (ISK Americas Incorporated, priority 1997, dated 2002).

What was measured:
Type in all cases: in vivo
[1] = system: velvetleaf (Abutilon theophrasti, ABUTH); experiment: Pre-emerge test, greenhouse herbicide activity screening; conditions: for Pre-emerge Herbicidal Activity, phytotoxicity rating (0-100), ABUTH: rated 14 days after application, 0 = no damage, 100 = complete death; for Pre-emerge herbicidal activity, phytotoxicity rating ABUTH: rating scale 0-100, 14 days after application
Summary of the method: (§1)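 Compounds in acetone were track-sprayed at 15-1000 g ai/ha (187 l/ha) on sandy loam pots: pre-emerge one day after seeding, post-emerge at 2-3 leaf stage with 0.25% v/v non-ionic surfactant. Phytotoxicity was rated 14 days later on a 0 (no damage) to 100 (complete death) scale.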

[2] = system: sicklepod (Cassia obtusifolia, CASOB); experiment: as above; conditions: for Pre-emerge Herbicidal Activity, phytotoxicity rating (0-100), CASOB: rated 14 days after application, 0 = no damage, 100 = complete death; for Pre-emerge herbicidal activity, phytotoxicity rating CASOB: rating scale 0-100, 14 days after application
Summary of the method: as §1

[3] = system: common ragweed (Ambrosia artemisizfolia L., AMBEL); experiment: as above; conditions: rated 14 days after application, 0 = no damage, 100 = complete death
Summary of the method: as §1

[4] = system: large crabgrass (Digitaria sanguinalis, DIGSA); experiment: as above; conditions: for Pre-emerge Herbicidal Activity, phytotoxicity rating (0-100), DIGSA: rated 14 days after application, 0 = no damage, 100 = complete death; for Pre-emerge herbicidal activity, phytotoxicity rating DIGSA: rating scale 0-100, 14 days after application
Summary of the method: as §1

[5] = system: johnsongrass (Sorghum halepense, SORHA); experiment: as above; conditions: for Pre-emerge Herbicidal Activity, phytotoxicity rating (0-100), SORHA: rated 14 days after application, 0 = no damage, 100 = complete death; for Pre-emerge herbicidal activity, phytotoxicity rating SORHA: rating scale 0-100, 14 days after application
Summary of the method: as §1

[6] = system: ivyleaf morningglory (Ipomoea hederacea, IPOHE); experiment: as above; conditions: for Pre-emerge Herbicidal Activity, phytotoxicity rating (0-100), IPOHE: rated 14 days after application, 0 = no damage, 100 = complete death; for Pre-emerge herbicidal activity, phytotoxicity rating IPOHE: rating scale 0-100, 14 days after application
Summary of the method: as §1

[7] = system: barnyardgrass (Echinochloa crus-galli, ECHCG); experiment: as above; conditions: for Pre-emerge Herbicidal Activity, phytotoxicity rating (0-100), ECHCG: rated 14 days after application, 0 = no damage, 100 = complete death; for Pre-emerge herbicidal activity, phytotoxicity rating ECHCG: rating scale 0-100, 14 days after application
Summary of the method: as §1

[8] = system: lambsquarters (Chenopodium album, CHEAL); experiment: as above; conditions: for Pre-emerge Herbicidal Activity, phytotoxicity rating (0-100), CHEAL: rated 14 days after application, 0 = no damage, 100 = complete death; for Pre-emerge herbicidal activity, phytotoxicity rating CHEAL: rating scale 0-100, 14 days after application
Summary of the method: as §1

[9] = system: green foxtail (Setaria viridis, SETVI); experiment: as above; conditions: for Pre-emerge Herbicidal Activity, phytotoxicity rating (0-100), SETVI: rated 14 days after application, 0 = no damage, 100 = complete death; for Pre-emerge herbicidal activity, phytotoxicity rating SETVI: rating scale 0-100, 14 days after application
Summary of the method: as §1

[10] = system: upland rice (Oryza sp., var. Tebonnet, RICE); experiment: Pre-emerge test, crop safety; conditions: for Pre-emerge phytotoxicity rating (0-100), crop damage, RICE: rated 14 days after application, 0 = no damage, 100 = complete death; for Pre-emerge phytotoxicity rating, crop damage RICE: rating scale 0-100, 14 days after application
Summary of the method: (§2)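 Applied at 15–1000 g ai/ha from acetone in 187 l/ha spray volume. Post-emergence applications included 0.25% v/v non-ionic surfactant and reached plants sown 8–21 days before. Pre-emergence applications were incorporated by surface watering. Efficacy or crop damage was rated on a 0–100 scale after 14 days.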

[11] = system: field corn (Zea mays L., var. Dekalb 535, CORN); experiment: Pre-emerge test, crop safety; conditions: for Pre-emerge phytotoxicity rating (0-100), crop damage, CORN: rated 14 days after application, 0 = no damage, 100 = complete death; for Pre-emerge phytotoxicity rating, crop damage CORN: rating scale 0-100, 14 days after application
Summary of the method: as §2

[12] = system: redroot pigweed (Amaranthus retroflexus, AMARE); experiment: Pre-emerge test, greenhouse herbicide activity screening; conditions: for Pre-emerge Herbicidal Activity, phytotoxicity rating (0-100), AMARE: rated 14 days after application, 0 = no damage, 100 = complete death; for Pre-emerge herbicidal activity, phytotoxicity rating AMARE: rating scale 0-100, 14 days after application
Summary of the method: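 Compounds in acetone were track-sprayed at 187 l/ha, 15–1000 g ai/ha, onto sandy loam pots. Pre-emerge seeds were sown one day before spraying, with surface watering afterwards. Post-emerge plants were at the 2–3 leaf stage and sprayed with 0.25% v/v non-ionic surfactant. Injury was rated 0–100 at 14 days.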

[13] = system: upland rice (Oryza sp., var. Tebonnet, RICE); experiment: Post-emerge test, crop safety; conditions: rating scale 0-100 (0 no damage, 100 complete death), 14 days after application
Summary of the method: as §1

[14] = system: field corn (Zea mays L., var. Dekalb 535, CORN); experiment: Post-emerge test, crop safety; conditions: rating scale 0-100 (0 no damage, 100 complete death), 14 days after application
Summary of the method: as §1

[15] = system: velvetleaf (Abutilon theophrasti, ABUTH); experiment: Post-emerge test, greenhouse herbicide activity screening; conditions: rating scale 0-100 (0 no damage, 100 complete death), 14 days after application
Summary of the method: as §1

[16] = system: sicklepod (Cassia obtusifolia, CASOB); experiment: as above; conditions: rating scale 0-100 (0 no damage, 100 complete death), 14 days after application
Summary of the method: as §1

[17] = system: common ragweed (Ambrosia artemisizfolia L., AMBEL); experiment: as above; conditions: rating scale 0-100 (0 no damage, 100 complete death), 14 days after application
Summary of the method: as §1

[18] = system: large crabgrass (Digitaria sanguinalis, DIGSA); experiment: as above; conditions: rating scale 0-100 (0 no damage, 100 complete death), 14 days after application
Summary of the method: as §1

[19] = system: johnsongrass (Sorghum halepense, SORHA); experiment: as above; conditions: rating scale 0-100 (0 no damage, 100 complete death), 14 days after application
Summary of the method: as §1

[20] = system: ivyleaf morningglory (Ipomoea hederacea, IPOHE); experiment: as above; conditions: rating scale 0-100 (0 no damage, 100 complete death), 14 days after application
Summary of the method: as §1

[21] = system: barnyardgrass (Echinochloa crus-galli, ECHCG); experiment: as above; conditions: rating scale 0-100 (0 no damage, 100 complete death), 14 days after application
Summary of the method: as §1

[22] = system: lambsquarters (Chenopodium album, CHEAL); experiment: as above; conditions: rating scale 0-100 (0 no damage, 100 complete death), 14 days after application
Summary of the method: as §1

[23] = system: redroot pigweed (Amaranthus retroflexus, AMARE); experiment: as above; conditions: rating scale 0-100 (0 no damage, 100 complete death), 14 days after application
Summary of the method: as §1

[24] = system: green foxtail (Setaria viridis, SETVI); experiment: as above; conditions: rating scale 0-100 (0 no damage, 100 complete death), 14 days after application
Summary of the method: as §1

## CCOc1ccc(C(=O)Nc2c(OC)c(Cl)cc(F)c2-n2c(=O)cc(C(F)(F)F)n(C)c2=O)cc1 [2-64]
[1]; 63 g ai/ha
  Pre-emerge Herbicidal Activity, phytotoxicity rating (0-100), ABUTH: 100
[1]; 250 g ai/ha
  Pre-emerge Herbicidal Activity, phytotoxicity rating (0-100), ABUTH: 100
[2]; 63 g ai/ha
  Pre-emerge Herbicidal Activity, phytotoxicity rating (0-100), CASOB: 0
[2]; 250 g ai/ha
  Pre-emerge Herbicidal Activity, phytotoxicity rating (0-100), CASOB: 100
[3]; 63 g ai/ha
  Pre-emerge Herbicidal Activity, phytotoxicity rating (0-100), AMBEL: 0
[3]; 250 g ai/ha
  Pre-emerge Herbicidal Activity, phytotoxicity rating (0-100), AMBEL: 60
[4]; 63 g ai/ha
  Pre-emerge Herbicidal Activity, phytotoxicity rating (0-100), DIGSA: 40
[4]; 250 g ai/ha
  Pre-emerge Herbicidal Activity, phytotoxicity rating (0-100), DIGSA: 70
[5]; 63 g ai/ha
  Pre-emerge Herbicidal Activity, phytotoxicity rating (0-100), SORHA: 10
[5]; 250 g ai/ha
  Pre-emerge Herbicidal Activity, phytotoxicity rating (0-100), SORHA: 50
[6]; 63 g ai/ha
  Pre-emerge Herbicidal Activity, phytotoxicity rating (0-100), IPOHE: 0
[6]; 250 g ai/ha
  Pre-emerge Herbicidal Activity, phytotoxicity rating (0-100), IPOHE: 40
[7]; 63 g ai/ha
  Pre-emerge Herbicidal Activity, phytotoxicity rating (0-100), ECHCG: 0
[7]; 250 g ai/ha
  Pre-emerge Herbicidal Activity, phytotoxicity rating (0-100), ECHCG: 60
[8]; 63 g ai/ha
  Pre-emerge Herbicidal Activity, phytotoxicity rating (0-100), CHEAL: 90
[8]; 250 g ai/ha
  Pre-emerge Herbicidal Activity, phytotoxicity rating (0-100), CHEAL: 100
[9]; 63 g ai/ha
  Pre-emerge Herbicidal Activity, phytotoxicity rating (0-100), SETVI: 100
[9]; 250 g ai/ha
  Pre-emerge Herbicidal Activity, phytotoxicity rating (0-100), SETVI: 100
[10]; 63 g ai/ha
  Pre-emerge phytotoxicity rating (0-100), crop damage, RICE: 10
[10]; 250 g ai/ha
  Pre-emerge phytotoxicity rating (0-100), crop damage, RICE: 60
[11]; 63 g ai/ha
  Pre-emerge phytotoxicity rating (0-100), crop damage, CORN: 0
[11]; 250 g ai/ha
  Pre-emerge phytotoxicity rating (0-100), crop damage, CORN: 35
[12]; 63 g ai/ha
  Pre-emerge Herbicidal Activity, phytotoxicity rating (0-100), AMARE: 90
[12]; 250 g ai/ha
  Pre-emerge Herbicidal Activity, phytotoxicity rating (0-100), AMARE: 100

## CCOCCOC(=O)C(Cl)Cc1c(OC)c(Cl)cc(F)c1-n1c(=O)cc(C(F)(F)F)n(C)c1=O (stereo not shown) [14-26]
[13]; Rate 63 g ai/ha
  Post-emerge phytotoxicity rating RICE (crop damage): 10
[13]; Rate 250 g ai/ha
  Post-emerge phytotoxicity rating RICE (crop damage): 10
[14]; Rate 63 g ai/ha
  Post-emerge phytotoxicity rating CORN (crop damage): 40
[14]; Rate 250 g ai/ha
  Post-emerge phytotoxicity rating CORN (crop damage): 100
[1]; 63 g ai/ha
  Pre-emerge herbicidal activity, phytotoxicity rating ABUTH: 80
[1]; 250 g ai/ha
  Pre-emerge herbicidal activity, phytotoxicity rating ABUTH: 100
[2]; 63 g ai/ha
  Pre-emerge herbicidal activity, phytotoxicity rating CASOB: 0
[2]; 250 g ai/ha
  Pre-emerge herbicidal activity, phytotoxicity rating CASOB: 20
[4]; 63 g ai/ha
  Pre-emerge herbicidal activity, phytotoxicity rating DIGSA: 50
[4]; 250 g ai/ha
  Pre-emerge herbicidal activity, phytotoxicity rating DIGSA: 95
[5]; 63 g ai/ha
  Pre-emerge herbicidal activity, phytotoxicity rating SORHA: 0
[5]; 250 g ai/ha
  Pre-emerge herbicidal activity, phytotoxicity rating SORHA: 70
[6]; 63 g ai/ha
  Pre-emerge herbicidal activity, phytotoxicity rating IPOHE: 0
[6]; 250 g ai/ha
  Pre-emerge herbicidal activity, phytotoxicity rating IPOHE: 0
[7]; 63 g ai/ha
  Pre-emerge herbicidal activity, phytotoxicity rating ECHCG: 0
[7]; 250 g ai/ha
  Pre-emerge herbicidal activity, phytotoxicity rating ECHCG: 95
[8]; 63 g ai/ha
  Pre-emerge herbicidal activity, phytotoxicity rating CHEAL: 70
[8]; 250 g ai/ha
  Pre-emerge herbicidal activity, phytotoxicity rating CHEAL: 100
[9]; 63 g ai/ha
  Pre-emerge herbicidal activity, phytotoxicity rating SETVI: 0
[9]; 250 g ai/ha
  Pre-emerge herbicidal activity, phytotoxicity rating SETVI: 99
[10]; 63 g ai/ha
  Pre-emerge phytotoxicity rating, crop damage RICE: 0
[10]; 250 g ai/ha
  Pre-emerge phytotoxicity rating, crop damage RICE: 80
[11]; 63 g ai/ha
  Pre-emerge phytotoxicity rating, crop damage CORN: 0
[11]; 250 g ai/ha
  Pre-emerge phytotoxicity rating, crop damage CORN: 50
[15]; Rate 63 g ai/ha
  Post-emerge Herbicidal Activity, phytotoxicity rating ABUTH: 70
[15]; Rate 250 g ai/ha
  Post-emerge Herbicidal Activity, phytotoxicity rating ABUTH: 100
[16]; Rate 63 g ai/ha
  Post-emerge Herbicidal Activity, phytotoxicity rating CASOB: 50
[16]; Rate 250 g ai/ha
  Post-emerge Herbicidal Activity, phytotoxicity rating CASOB: 90
[17]; Rate 63 g ai/ha
  Post-emerge Herbicidal Activity, phytotoxicity rating AMBEL: 100
[17]; Rate 250 g ai/ha
  Post-emerge Herbicidal Activity, phytotoxicity rating AMBEL: 100
[18]; Rate 63 g ai/ha
  Post-emerge Herbicidal Activity, phytotoxicity rating DIGSA: 100
[18]; Rate 250 g ai/ha
  Post-emerge Herbicidal Activity, phytotoxicity rating DIGSA: 100
[19]; Rate 63 g ai/ha
  Post-emerge Herbicidal Activity, phytotoxicity rating SORHA: 30
[19]; Rate 250 g ai/ha
  Post-emerge Herbicidal Activity, phytotoxicity rating SORHA: 70
[20]; Rate 63 g ai/ha
  Post-emerge Herbicidal Activity, phytotoxicity rating IPOHE: 20
[20]; Rate 250 g ai/ha
  Post-emerge Herbicidal Activity, phytotoxicity rating IPOHE: 100
[21]; Rate 63 g ai/ha
  Post-emerge Herbicidal Activity, phytotoxicity rating ECHCG: 100
[21]; Rate 250 g ai/ha
  Post-emerge Herbicidal Activity, phytotoxicity rating ECHCG: 100
[22]; Rate 63 g ai/ha
  Post-emerge Herbicidal Activity, phytotoxicity rating CHEAL: 60
[22]; Rate 250 g ai/ha
  Post-emerge Herbicidal Activity, phytotoxicity rating CHEAL: 100
[23]; Rate 63 g ai/ha
  Post-emerge Herbicidal Activity, phytotoxicity rating AMARE: 90
[23]; Rate 250 g ai/ha
  Post-emerge Herbicidal Activity, phytotoxicity rating AMARE: 100
[24]; Rate 63 g ai/ha
  Post-emerge Herbicidal Activity, phytotoxicity rating SETVI: 0
[24]; Rate 250 g ai/ha
  Post-emerge Herbicidal Activity, phytotoxicity rating SETVI: 0
[12]; 63 g ai/ha
  Pre-emerge herbicidal activity, phytotoxicity rating AMARE: 100
[12]; 250 g ai/ha
  Pre-emerge herbicidal activity, phytotoxicity rating AMARE: 100
